Measured values taken from patent EP0851766B1, “METHOD FOR ANALYZING THE IMMUNOS[…] OF ION CHANNEL BLOCKERS USING THE MINI-PIG” (MERCK & CO., INC., priority 1995, dated 1997).
Like-named read-outs stand apart in the source and are kept apart here.

Columns and labels:
[1] = test system: mixed lymphocyte reaction; test: Mixed lymphocyte reaction (pig); format: cell-based
From the text: Mini-swine was recently selected to validate the concept that blocking the voltage activated K+ channels (Kv1.3) is a target for immunomodulation.

[2] = test system: pig mononuclear cells; test: In vitro PMA/ionomycin induced proliferation of mononuclear cells ([3H]thymidine incorporation); format: cell-based
[3] = test system: mononuclear cells; test: Ex vivo PMA/ionomycin-induced proliferation of mononuclear cells after in vivo infusion; set-up: species or system Yucatan mini-pig; settings: 25 µg in 30 ml of vehicle infused over 2.5 h
[4] = Blood pressure and heart rate during infusion; format: in vivo, Yucatan mini-pig; settings: during infusion of 25 µg over 2.5 h
Procedure: A Yucatan mini-pig received 25 µg of margatoxin in 30 ml of vehicle (5% autologous serum in 1:1 saline to PBS solution) over 2.5 h. […] Margatoxin was undetectable in the plasma in 24 h. Plasma level of MgTX was determined in a competition binding assay, by its inhibition of ^125I-labeled MgTX binding to Kv1.3 channels present in isolated plasma membranes. […] Similar pharmokinetic study was performed six times, with good correlations between high plasma levels of margatoxin and the lower response to PMA/ION. Yucatan mini-pigs receiving vehicle had no significant fluctuation of responses to PMA/ION. Therefore, this ex vivo test provides an assessment of the in vivo biological effect of margatoxin and can also be used to study the immunosuppressant effects of other ion channel blockers.

[5] = test system: mixed lymphocyte reaction; settings: mouse; cited from earlier work
[6] = 25 µg infused over 2.5 h
[7] = test system: mixed lymphocyte reaction; settings: rat; cited from earlier work
[8] = test system: mixed lymphocyte reaction; settings: rabbit; cited from earlier work
[9] = test system: mixed lymphocyte reaction; settings: guinea pig; cited from earlier work
[10] = molecular target: T1, Kv1.3 channels of the pig T cells (Sus scrofa, UniProt A0A5G2QN06); settings: electrophysiological analyses, unpublished communication from Reid Leonard; cited from earlier work
T1 construct: endogenous in cells; host or cells: pig T cells
T1 sequence (A0A5G2QN06 1-588): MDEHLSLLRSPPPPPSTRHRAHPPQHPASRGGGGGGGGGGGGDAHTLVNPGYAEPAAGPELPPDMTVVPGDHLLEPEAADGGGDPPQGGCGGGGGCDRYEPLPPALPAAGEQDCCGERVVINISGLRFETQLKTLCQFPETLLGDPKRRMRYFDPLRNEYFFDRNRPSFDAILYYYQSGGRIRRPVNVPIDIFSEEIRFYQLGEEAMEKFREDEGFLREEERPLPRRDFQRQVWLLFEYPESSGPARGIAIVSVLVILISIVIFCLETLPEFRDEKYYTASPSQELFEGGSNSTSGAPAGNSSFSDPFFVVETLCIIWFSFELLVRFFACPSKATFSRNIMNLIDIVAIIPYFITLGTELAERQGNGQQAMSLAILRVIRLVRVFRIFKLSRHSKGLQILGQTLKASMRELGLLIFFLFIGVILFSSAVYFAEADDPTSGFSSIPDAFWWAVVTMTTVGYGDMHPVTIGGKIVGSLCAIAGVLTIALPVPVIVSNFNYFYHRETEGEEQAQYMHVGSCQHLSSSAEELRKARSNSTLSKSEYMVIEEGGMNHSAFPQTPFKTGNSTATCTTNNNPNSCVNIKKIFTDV

Margatoxin
inhibition of the mixed lymphocyte reaction [1]: inhibit
PMA/ionomycin (ION) induced proliferation ([2]; pig mononuclear cells, in vitro): equally inhibited
suppression of the proliferative response to PMA/ION ([2]; whole blood spiked with Margatoxin): significant suppression
Unresponsiveness to PMA/ION, duration sustained post-infusion [3]: 4.5 h
Unresponsiveness to PMA/ION, time of maximum [3]: maximal at the end of infusion
rise in blood pressure [4]: no significant rise
rise in heart rate [4]: no significant rise
inhibition of the mixed lymphocyte reaction [5]: not inhibited
Plasma level ([6]; in 24 h): undetectable
half-life ([6]; plasma): about 2 h
Cmax ([6]; read-out: Plasma level, peak, at the end of infusion): 0.6 nM
concentration ([6]; read-out: Plasma level, at 4.5 h post-infusion): 0.1 nM
inhibition of the mixed lymphocyte reaction [7]: not inhibited
inhibition of the mixed lymphocyte reaction [8]: not inhibited
inhibition of the mixed lymphocyte reaction [9]: not inhibited
block of the Kv1.3 channels [10]: block
